Assay results taken from patent US20210401931A1, “METHODS AND MATERIALS FOR TREATING CANCER” (Mayo Foundation for Medical Education and Research, priority 2018, published 2021).
Ends that are not written are not given here.

Test system: NFκB target genes
Test: Expression of NFκB target genes in PC-3 cells (RNA-seq, RT-qPCR)
Assay type: cell-based, human
Conditions: PC-3 cells expressing peptide, TNFα 20 ng/mL, 24 hours
Procedure: FIGS. 4A-G. RB globally regulates NFkB transcriptional program in cells. […] (F, G) PC-3 cell were treated with or without palbociclib (5 μM) for 24 hours or PC-3 cells were infected with lentivirus expressing control shRNA or RB-specific shRNA following puromycin selection after 48 hours infection. Cells were harvested for RT-qPCR (F) and ChIP-qPCR (G) analysis of p65 binding at the promotor of PD-L1, GADD45B, NR4A2, and CD83. All data were shown as mean values±SD (n=3). * P<0.05, ** P<0.01, ***P<0.001.
FIGS. 16A-K. Mutual exclusivity of PTEN and MAP3K7 gene deletion in human cancers and CDK4/6 inhibition-mediated blockage of MAP3K7 deficiency-induced death of PTEN-null cells. (A) Genetic alterations of MAP3K7 and PTEN genes in the TCGA prostate cancer dataset. (B) Genetic alterations of MAP3K7 and PTEN genes in lymphoid neoplasm diffuse large B-cell lymphoma, stomach adenocarcinoma, pancreatic cancer, liver cancer, bladder urothelial carcinoma, and lung adenocarcinoma. (C-E) PC-3 cells were infected with lentivirus expressing control or MAP3K7-specific shRNAs. 72 hours after infection, cells were harvested for western blotting (C), cell growth assay (D), and colony formation assay (E). All data were shown as mean values±SD (n=3). ns, not significant, * P<0.05 comparing to the shControl group. (F-H) LNCaP-RF prostate cancer cells were infected with lentivirus expressing control or MAP3K7-specific shRNAs. 72 hours after infection, cells were harvested for western blotting (F), cell growth assay (G), and colony formation assay (H). All data are shown as mean values±SD (n=3). ns, not significant, * P<0.05 comparing to the shControl group. (I-K) PC-3 cells were infected with lentivirus expressing control, MAP3K7 or CHD1-specific shRNAs. 72 hours after infection, cells were treated with DMSO or palbociclib (5 μM). […]
FIGS. 17A-I. Negative regulation of MAP3K7-IKK-NFκB and CHD1-NFκB signaling by RB. […] 72 hours after infection and puromycin selection, cells were injected s.c. into the right flank of NSG mice, and tumor growth was measured for 21 days. […]

With “RL-S249D/T252D: S249/T252 phospho-mimicking R-Linker (RL) peptide: fragment of RB-N containing 21 amino acids surrounding S249/T252, expressed SFB-tagged or by lentivirus (NGDPRDPRRGQNRSARIAKQL; also: expressed SFB-tagged (tag left off))” the “TNFα-induced expression of NFκB target genes” value was “blocked”.
